According to PubChem BioAssay (NCI):
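96-well plates; 48 h exposure; 5 concentrations. Endpoints by linear interpolation between flanking doses. Not reached: highest tested concentration assigned. At the TGI there is no net growth.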

Key:
Assay in all cases: inhibition of tumour cell growth, NCI panel, 48 h
786-0 renal = system: 786-0 renal
A498 renal = system: A498 renal
A549 NSCLC = system: A549 NSCLC
ACHN renal = system: ACHN renal
BT-549 breast = system: BT-549 breast
CAKI-1 renal = system: CAKI-1 renal
CCRF-CEM leukemia = system: CCRF-CEM leukemia
COLO 205 colon = system: COLO 205 colon
DU-145 prostate = system: DU-145 prostate
EKVX NSCLC = system: EKVX NSCLC
HCC-2998 colon = system: HCC-2998 colon
HCT-116 colon = system: HCT-116 colon
HCT-15 colon = system: HCT-15 colon
HL-60(TB) leukemia = system: HL-60(TB) leukemia
HOP-62 NSCLC = system: HOP-62 NSCLC
HOP-92 NSCLC = system: HOP-92 NSCLC
HS 578T breast = system: HS 578T breast
HT29 colon = system: HT29 colon
IGROV1 ovarian = system: IGROV1 ovarian
K-562 leukemia = system: K-562 leukemia
KM12 colon = system: KM12 colon
LOX IMVI melanoma = system: LOX IMVI melanoma
M14 melanoma = system: M14 melanoma
MALME-3M melanoma = system: MALME-3M melanoma
MCF7 breast = system: MCF7 breast
MDA-MB-435 = system: MDA-MB-435
MDA-N = system: MDA-N
MOLT-4 leukemia = system: MOLT-4 leukemia
NCI-H226 lung = system: NCI-H226 lung
NCI-H23 lung = system: NCI-H23 lung
NCI-H460 lung = system: NCI-H460 lung
NCI-H522 lung = system: NCI-H522 lung
NCI/ADR-RES ovarian = system: NCI/ADR-RES ovarian
OVCAR-3 ovarian = system: OVCAR-3 ovarian
OVCAR-4 ovarian = system: OVCAR-4 ovarian
OVCAR-5 ovarian = system: OVCAR-5 ovarian
OVCAR-8 ovarian = system: OVCAR-8 ovarian
PC-3 prostate = system: PC-3 prostate
RPMI-8226 leukemia = system: RPMI-8226 leukemia
RXF 393 renal = system: RXF 393 renal
SF-268 CNS = system: SF-268 CNS
SF-295 CNS = system: SF-295 CNS
SF-539 CNS = system: SF-539 CNS
SK-MEL-2 melanoma = system: SK-MEL-2 melanoma
SK-MEL-28 melanoma = system: SK-MEL-28 melanoma
SK-MEL-5 melanoma = system: SK-MEL-5 melanoma
SK-OV-3 ovarian = system: SK-OV-3 ovarian
SN12C renal = system: SN12C renal
SNB-19 CNS = system: SNB-19 CNS
SNB-75 CNS = system: SNB-75 CNS
SR leukemia = system: SR leukemia
SW-620 colon = system: SW-620 colon
T-47D breast = system: T-47D breast
TK-10 renal = system: TK-10 renal
U251 CNS = system: U251 CNS
UACC-257 melanoma = system: UACC-257 melanoma
UACC-62 melanoma = system: UACC-62 melanoma
UO-31 renal = system: UO-31 renal
MDA-MB-231 breast = system: MDA-MB-231 breast

CCOP1(=O)C=C(Sc2ccc([N+](=O)[O-])cc2[N+](=O)[O-])C(C)(C)O1 (stereo not given)
TGI (786-0 renal): 23.6 µM
TGI (A498 renal): 44.5 µM
TGI (A549 NSCLC): 44.3 µM
TGI (ACHN renal): 28 µM
TGI (BT-549 breast): 32.2 µM
TGI (CAKI-1 renal): 24.8 µM
TGI (CCRF-CEM leukemia): 16.4 µM
TGI (COLO 205 colon): 23.9 µM
TGI (DU-145 prostate): 26.4 µM
TGI (EKVX NSCLC): 18.8 µM
TGI (HCC-2998 colon): 39.7 µM
TGI (HCT-116 colon): 18.8 µM
TGI (HCT-15 colon): 36.7 µM
TGI (HL-60(TB) leukemia): 77.3 µM
TGI (HOP-62 NSCLC): 56.2 µM
TGI (HOP-92 NSCLC): 25.3 µM
TGI (HS 578T breast): > 78.8 µM
TGI (HT29 colon): > 75.9 µM
TGI (IGROV1 ovarian): 30.4 µM
TGI (K-562 leukemia): > 20 µM
TGI (KM12 colon): 38.6 µM
TGI (LOX IMVI melanoma): > 34.9 µM
TGI (M14 melanoma): 24.5 µM
TGI (MALME-3M melanoma): 31.4 µM
TGI (MCF7 breast): 17.2 µM
TGI (MDA-MB-435): 28.5 µM
TGI (MDA-N): 17.6 µM
TGI (MOLT-4 leukemia): > 100 µM
TGI (NCI-H226 lung): 47.2 µM
TGI (NCI-H23 lung): 46.3 µM
TGI (NCI-H460 lung): 49.2 µM
TGI (NCI-H522 lung): 9.36 µM
TGI (NCI/ADR-RES ovarian): > 76.5 µM
TGI (OVCAR-3 ovarian): 25.9 µM
TGI (OVCAR-4 ovarian): 28.9 µM
TGI (OVCAR-5 ovarian): 43.4 µM
TGI (OVCAR-8 ovarian): 35.4 µM
TGI (PC-3 prostate): > 50.1 µM
TGI (RPMI-8226 leukemia): 39.2 µM
TGI (RXF 393 renal): 31.8 µM
TGI (SF-268 CNS): 49.5 µM
TGI (SF-295 CNS): 40.8 µM
TGI (SF-539 CNS): 27.5 µM
TGI (SK-MEL-2 melanoma): 35.3 µM
TGI (SK-MEL-28 melanoma): 32 µM
TGI (SK-MEL-5 melanoma): 23 µM
TGI (SK-OV-3 ovarian): 66.2 µM
TGI (SN12C renal): 41 µM
TGI (SNB-19 CNS): > 57.8 µM
TGI (SNB-75 CNS): 50.3 µM
TGI (SR leukemia): 7.17 µM
TGI (SW-620 colon): > 52.2 µM
TGI (T-47D breast): 32 µM
TGI (TK-10 renal): 31.3 µM
TGI (U251 CNS): 30.3 µM
TGI (UACC-257 melanoma): 25 µM
TGI (UACC-62 melanoma): 26.4 µM
TGI (UO-31 renal): 28.3 µM

CC(=O)Nc1ccccc1C=C1c2ccccc2-c2ccccc21
TGI (786-0 renal): 45.2 µM
TGI (A498 renal): > 100 µM
TGI (A549 NSCLC): > 100 µM
TGI (ACHN renal): > 100 µM
TGI (BT-549 breast): 98.3 µM
TGI (CAKI-1 renal): > 100 µM
TGI (CCRF-CEM leukemia): > 100 µM
TGI (COLO 205 colon): > 100 µM
TGI (DU-145 prostate): > 100 µM
TGI (EKVX NSCLC): > 100 µM
TGI (HCC-2998 colon): > 100 µM
TGI (HCT-116 colon): > 100 µM
TGI (HCT-15 colon): > 100 µM
TGI (HL-60(TB) leukemia): > 100 µM
TGI (HOP-62 NSCLC): 42.9 µM
TGI (HS 578T breast): > 100 µM
TGI (HT29 colon): > 100 µM
TGI (IGROV1 ovarian): > 100 µM
TGI (K-562 leukemia): > 100 µM
TGI (KM12 colon): > 100 µM
TGI (LOX IMVI melanoma): > 100 µM
TGI (M14 melanoma): > 100 µM
TGI (MALME-3M melanoma): > 100 µM
TGI (MCF7 breast): 50.3 µM
TGI (MDA-MB-231 breast): 58.2 µM
TGI (MDA-MB-435): > 100 µM
TGI (MDA-N): > 100 µM
TGI (MOLT-4 leukemia): > 100 µM
TGI (NCI-H226 lung): 66.8 µM
TGI (NCI-H23 lung): > 100 µM
TGI (NCI-H460 lung): > 100 µM
TGI (NCI-H522 lung): > 100 µM
TGI (NCI/ADR-RES ovarian): 66.7 µM
TGI (OVCAR-3 ovarian): 73 µM
TGI (OVCAR-4 ovarian): > 100 µM
TGI (OVCAR-5 ovarian): > 100 µM
TGI (OVCAR-8 ovarian): 47.4 µM
TGI (PC-3 prostate): > 100 µM
TGI (RPMI-8226 leukemia): > 100 µM
TGI (RXF 393 renal): 42.3 µM
TGI (SF-268 CNS): > 100 µM
TGI (SF-295 CNS): 46.2 µM
TGI (SF-539 CNS): 26.5 µM
TGI (SK-MEL-2 melanoma): > 100 µM
TGI (SK-MEL-28 melanoma): > 100 µM
TGI (SK-MEL-5 melanoma): > 100 µM
TGI (SN12C renal): 53.6 µM
TGI (SNB-19 CNS): 45.8 µM
TGI (SNB-75 CNS): 33.7 µM
TGI (SR leukemia): > 100 µM
TGI (SW-620 colon): > 100 µM
TGI (T-47D breast): > 100 µM
TGI (TK-10 renal): > 100 µM
TGI (U251 CNS): 60.4 µM
TGI (UACC-257 melanoma): > 100 µM
TGI (UACC-62 melanoma): > 100 µM
TGI (UO-31 renal): 38.5 µM
